“And” between values parts separate entries of the source, which are not always exact repeats. Equal values may be shown once. Read-outs that look alike come from different tables or passages of the source.
Columns and labels:
BT474 xenograft = experiment: BT474 human breast tumor xenograft in CB.17 SCID mice; type: in vivo
endogenous STAT3 = experiment: Immunoprecipitation from cell lines with constitutively activated STAT3; type: binding, human (PANC-1 and DU145) and murine (4T1)
Description: Commercial HeLa cells were also treated with interferon gamma (INFΓ) in order to induce phosphorylated STAT3. The PC-3 STAT3 null cell line was used as a negative control.
The cells were grown to 50% to 70% confluence, then disrupted in freshly prepared ice-cold lysis buffer as described above for 45 minutes on ice. Lysates were then centrifuged, the supernatant collected, and protein concentration was determined as described above. […] Beads were then washed. Following the final wash, 60 μl of lysis buffer was added, and the resulting supernatant was subject to Western Blot analysis as described in Example 2.

HT1080 cells = experiment: MTT proliferation assay, HT1080; type: cell-based, human; details: HT1080, 72 hr
STAT3 = experiment: Immunofluorescence of Stat3 nuclear translocation after IL-6; type: cell-based; details: HEp-2, MDA-MB-231 and PANC-1 cells; sdAb 1:10 overnight; 100 ng/ml IL-6 15 min
Description: The cells were grown to confluence on chamber slides. […] As a negative control, no antibody was added to duplicate chambers. The slides were washed, and either serum-free media alone or 100 ng/ml recombinant human IL-6 (Peprotech, Rocky Hill, N.J.) in serum free media was added to the slides for 15 min at 37° C. The media was then removed and the chamber slides were fixed in ice cold 100% methanol for 10 min at −20° C.
Immunofluorescence assays were performed on the fixed slides. First, the slides were blocked with 3% BSA in PBS was done for one hour at room temperature. The primary antibody, Stat3(124H6) mouse monoclonal antibody (Cell Signaling Technology, Danvers, Mass.) was added to the slides at a 1:1000 dilution overnight in dark box at 4° C. The following day, the slides were washed and the secondary Alexa Fluor 488 anti-mouse IgG antibody (Cell Signaling Technology) was added at a 1:500 dilution and incubated for 1 hour at room temperature. The slides were then washed, mounted with mounting media and viewed with a fluorescence microscope.

MDA-MB-231 cells = experiment: MTT proliferation assay, MDA-MB-231; type: cell-based, human; details: MDA-MB-231; for Absorbance: single experiments;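 on all read-outs here: proliferation of cultured human cancer cells read by MTT, with treated groups compared against a vehicle control group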
[1] = system: Zika/DAKAR D41525 Senegal strain
SJSA-1 cells = experiment: MTT proliferation assay, SJSA-1; type: cell-based, human; details: for Mean Abs (±SD): 72 hours
PANC-1 xenograft = details: for Tumor Measurements (mm^3), group Mean / Individual Tumor Measurements (mm^3): Group 2: 500 μg/kg bw IP QD×14; for Individual Tumor Measurements (mm^3): single animals, listed as anti-STAT3 bacterial VHH13
PANC-1 cells [2] = experiment: MTT proliferation assay, PANC-1; details: SBT-100 100 μg/ml alone, experiment with Gemcitabine Hydrochloride (Biovision #1759), 72 hours
STAT5 = experiment: Biacore 3000 protein binding, STAT5
PANC-1 cells [3] = experiment: Internalization of sdAb, anti-His staining, PANC-1; type: cell-based; details: 18 hours after sdAb addition
Description: The next day, the chambers were rinsed with fresh media and STAT3 VHH13 (SEQ ID NO:3) sdAb (diluted 1:10 in media) or TNF-α VHH66 (SEQ ID NO:45) sdAb was added to the chamber. An anti-HIV-1 Reverse Transcriptase (RT) sdAb was used as a negative control.
The slides were incubated for 18 hours after sdAb addition. The chambers were briefly rinsed with media and fixed in ice-cold methanol for 5-10 min. The chambers were then dried and stained with a fluorescent anti-His tag antibody (1:200) (Novus Biologicals, Littleton, Colo.) for 45 min at room temperature. The slides were rinsed in PBS for 5 minutes and mounted.

SIE-luc2P/HEK293 cells = experiment: BCA protein concentration of reporter cells; type: cell-based; details: highest concentration (55.8 μg/mL)
U87MG cells = experiment: MTT proliferation assay, U87MG; type: cell-based, human; details: for % Inhibition (growth): U87mg cells treated for 72 hr.
[4] = SB-01 1 mg/kg ip tid × 14 first day 2 doses

Substance: anti-STAT3 VHH13: anti-STAT3 single-domain antibody, SEQ ID NO:3; bacterially produced, referred to as SBT-100
- effect on growth of BT474 tumors compared to control (BT474 xenograft; 1 mg/kg ip tid × 14): did not reduce the growth of BT474 tumors in vivo
- % TGD (BT474 xenograft; [4]): 22%
- MTV (n) Day 60 (BT474 xenograft; [4]): 550
- Median TTE (BT474 xenograft; [4]): 60.0
- binding to Phospho-STAT3 (endogenous STAT3; HeLa lysate (interferon gamma treated)): bound
- immunoprecipitation of endogenous STAT3 (endogenous STAT3; PANC-1, DU145 and 4T1 lysates): immunoprecipitated
- immunoprecipitation in STAT3 null cell line (endogenous STAT3; PC-3 (negative control)): No bands
- IC50 (HT1080 cells): IC50 = 33 μg/ml
- translocation of Stat3 to the nucleus following IL-6 treatment (STAT3): blocks the translocation of Stat3 to the nucleus
- Average Absorbance (MDA-MB-231 cells; 50 μg): 0.82
- Average % Inhibition (MDA-MB-231 cells; 50 μg (50.0 μg/ml), listed as Anti-STAT3 Bacterial VHH13): 32.6%
- Absorbance (MDA-MB-231 cells; 50 μg, listed as Anti-STAT3 Bacterial VHH13): 0.82 and 0.99 and 0.64
- Average Absorbance (MDA-MB-231 cells; 100 μg): 0.11
- Absorbance (MDA-MB-231 cells; 100 μg, listed as Anti-STAT3 Bacterial VHH13): 0.07 and 0.12 and 0.14
- EC50 [1]: 11.04 ug/m
- EC90 [1]: 48.11 µg/mL
- IC50 (SJSA-1 cells; SJSA, 72 hr): IC50 = 51 μg/ml
- Mean Abs (±SD) (SJSA-1 cells; Table 72 (experiment 5a), SBT-100 3.13 μg/ml alone): 0.278 ± 0.057
- Mean Abs (±SD) (SJSA-1 cells; Table 72 (experiment 5a), SBT-100 6.25 μg/ml alone): 0.258 ± 0.097
- Mean Abs (±SD) (SJSA-1 cells; Table 72 (experiment 5a), SBT-100 25 μg/ml alone): 0.221 ± 0.034
- Mean Abs (±SD) (SJSA-1 cells; Table 72 (experiment 5a), SBT-100 50 μg/ml alone): 0.066 ± 0.003
- Mean Abs (±SD) (SJSA-1 cells; Table 72 (experiment 5a), SBT-100 100 μg/ml alone): 0.058 ± 0.002
- Mean Abs (±SD) (SJSA-1 cells; Table 73 (Experiment 2, 5b), SBT-100 3.13 μg/ml alone): 0.774 ± 0.068
- Mean Abs (±SD) (SJSA-1 cells; Table 73 (Experiment 2, 5b), SBT-100 6.25 μg/ml alone): 0.835 ± 0.058
- Mean Abs (±SD) (SJSA-1 cells; Table 73 (Experiment 2, 5b), SBT-100 25 μg/ml alone): 0.781 ± 0.057
- Mean Abs (±SD) (SJSA-1 cells; Table 73 (Experiment 2, 5b), SBT-100 50 μg/ml alone): 0.460 ± 0.038
- Mean Abs (±SD) (SJSA-1 cells; Table 73 (Experiment 2, 5b), SBT-100 100 μg/ml alone): 0.091 ± 0.002
- growth inhibition (PANC-1 xenograft; 500 μg/kg bw IP QD×14): no significant growth inhibition
- mean tumor size (±SE) on day 14 of dosing (PANC-1 xenograft; 500 μg/kg bw IP QD×14): 318.74 ± 29.76
- tumor doubling time (PANC-1 xenograft; 500 μg/kg bw IP QD×14, control […] days): 23.02 days
- Tumor Measurements (mm^3), group Mean (PANC-1 xenograft; 2/19): 110.58 mm^3
- Tumor Measurements (mm^3), group Mean (PANC-1 xenograft; 2/24): 149.71 mm^3
- Tumor Measurements (mm^3), group Mean (PANC-1 xenograft; 2/27): 222.47 mm^3
- Tumor Measurements (mm^3), group Mean (PANC-1 xenograft; 3/2): 242.11 mm^3
- Tumor Measurements (mm^3), group Mean (PANC-1 xenograft; 3/6): 318.74 mm^3
- Tumor Measurements (mm^3), group Mean (PANC-1 xenograft; 3/10): 408.74 mm^3
- Individual Tumor Measurements (mm^3) (PANC-1 xenograft; 2/19): 96.31 mm^3 and 89.24 mm^3 and 80.62 mm^3 and 108.03 mm^3 and 77.66 mm^3 and 129.68 mm^3 and 108.99 mm^3 and 123.27 mm^3 and 144.53 mm^3 and 120.96 mm^3 and 112.69 mm^3 and 134.95 mm^3
- Individual Tumor Measurements (mm^3) (PANC-1 xenograft; 2/24): 193.71 mm^3 and 90.03 mm^3 and 148.97 mm^3 and 144.14 mm^3 and 116.21 mm^3 and 143.20 mm^3 and 182.30 mm^3 and 171.03 mm^3 and 136.03 mm^3 and 136.48 mm^3 and 144.76 mm^3 and 189.64 mm^3
- Individual Tumor Measurements (mm^3) (PANC-1 xenograft; 2/27): 275.06 mm^3 and 112.43 mm^3 and 196.38 mm^3 and 234.46 mm^3 and 313.19 mm^3 and 290.67 mm^3 and 239.00 mm^3 and 223.34 mm^3 and 198.47 mm^3 and 226.43 mm^3 and 167.12 mm^3 and 193.14 mm^3
- Individual Tumor Measurements (mm^3) (PANC-1 xenograft; 3/2): 317.53 mm^3 and 125.51 mm^3 and 187.24 mm^3 and 240.39 mm^3 and 290.38 mm^3 and 224.92 mm^3 and 254.64 mm^3 and 226.88 mm^3 and 226.04 mm^3 and 338.06 mm^3 and 225.70 mm^3 and 248.01 mm^3
- Individual Tumor Measurements (mm^3) (PANC-1 xenograft; 3/6): 395.37 mm^3 and 189.63 mm^3 and 299.84 mm^3 and 288.75 mm^3 and 411.66 mm^3 and 261.44 mm^3 and 342.19 mm^3 and 248.69 mm^3 and 247.97 mm^3 and 564.71 mm^3 and 223.06 mm^3 and 351.63 mm^3
- Individual Tumor Measurements (mm^3) (PANC-1 xenograft; 3/10): 540.66 mm^3 and 235.08 mm^3 and 530.46 mm^3 and 421.61 mm^3 and 197.67 mm^3 and 343.04 mm^3 and 464.00 mm^3 and 324.30 mm^3 and 273.58 mm^3 and 883.81 mm^3 and 326.19 mm^3 and 364.44 mm^3
- % treatment/control (PANC-1 xenograft; SBT-100 5 mg/kg bw i.p. BID×14): 52.79%
- mean tumor size (±S.E.) at termination (day 28) (PANC-1 xenograft; SBT-100 5 mg/kg bw i.p. BID×14): 203.02±30.34
- mean tumor size (±SE) at last day of dosing (Day 14) (PANC-1 xenograft; SBT-100 5 mg/kg bw i.p. BID×14): 159.03±28.01
- tumor doubling time (PANC-1 xenograft; SBT-100 5 mg/kg bw i.p. BID×14, control 18.51 days): 35.70 days
- mean tumor growth inhibition at the end of the study (PANC-1 xenograft; SBT-100 5 mg/kg bw i.p. BID×14, p=0.35): 41.78%
- Abs (PANC-1 cells [2]): 0.381
- binding to STAT5 (STAT5; Biacore 3000, sdAb immobilized): bound
- Result (binding) (STAT5; Table 50, sdAb immobilized as ligand, analyte STAT5 protein 500 nM): Binding
- staining with fluorescent anti-His tag antibody (PANC-1 cells [3]): positive cytoplasmic staining
- decrease in protein (SIE-luc2P/HEK293 cells): approximately 2 fold
- % Inhibition (growth) (U87MG cells; Dose 50 μg/ml): 18%
- % Inhibition (growth) (U87MG cells; Dose 100 μg/ml): 51%
- % Inhibition (growth) (U87MG cells; Dose 200 μg/ml): 62%
- IC50 (U87MG cells; U87mg, 72 hr): IC50 = 65 μg/ml
- % Inhibition (U87MG cells; U87mg, SBT-100 50 μg/ml, 72 hr): 18%
- % Inhibition (U87MG cells; U87mg, SBT-100 100 μg/ml, 72 hr): 51%
- % Inhibition (U87MG cells; U87mg, SBT-100 200 μg/ml, 72 hr): 62%

Source: patent US11370847B2, “Single domain antibodies directed against intracellular antigens” (Singh Biotechnology, LLC, priority 2014, dated 2022)
